In patent publication US20240270751A1, “Pyrazolopyridinone Compounds” (BeiGene Ltd., priority 2021, published 2024) one finds IC50 data, which are given here for 22 compounds.

Some results are limits rather than exact numbers.

Test [1] addresses DGKα (Homo sapiens (Human), UniProt P23743). Briefly: Biochemical DGK IC50 assay, DGKα ADP-Glo assay. The settings on record: 7.5 nM enzyme, 140 μM ATP, 80 μM DAG. Summed up:
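Compounds at final 1.55˜10000 nM or 23.3˜150000 nM were tested against full-length DGKα. Substrate was lipid micelles of DAG and PS resuspended in 25 mM HEPES pH 7.0 with 0.5 mM EDTA and 160 mM octyl β-D-glucopyranoside. ADP formed was detected by ADP-Glo.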
On the technique in general: ADP-Glo first removes unused ATP, then detects ADP through luciferase.

Test [2] deals with DGKζ (Homo sapiens (Human), UniProt Q13574). Briefly: Biochemical DGK IC50 assay, DGKζ ADP-Glo assay. The note with it: 0.5 nM enzyme, 140 μM ATP, 80 μM DAG; read-out: DGKζ ADP-Glo assay IC50. An outline of the steps: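 ADP formation measured by ADP-Glo luminescence, with test compounds at final 1.55–10000 nM or 23.3–150000 nM. Enzyme: purified full-length human DGKζ from Sf9 insect cells; substrate: DAG/PS micelles in 25 mM HEPES pH 7.0, 0.5 mM EDTA, octyl glucoside.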
Sequence of DGKζ (Q13574 other isoform, or with tags, fused parts or gaps): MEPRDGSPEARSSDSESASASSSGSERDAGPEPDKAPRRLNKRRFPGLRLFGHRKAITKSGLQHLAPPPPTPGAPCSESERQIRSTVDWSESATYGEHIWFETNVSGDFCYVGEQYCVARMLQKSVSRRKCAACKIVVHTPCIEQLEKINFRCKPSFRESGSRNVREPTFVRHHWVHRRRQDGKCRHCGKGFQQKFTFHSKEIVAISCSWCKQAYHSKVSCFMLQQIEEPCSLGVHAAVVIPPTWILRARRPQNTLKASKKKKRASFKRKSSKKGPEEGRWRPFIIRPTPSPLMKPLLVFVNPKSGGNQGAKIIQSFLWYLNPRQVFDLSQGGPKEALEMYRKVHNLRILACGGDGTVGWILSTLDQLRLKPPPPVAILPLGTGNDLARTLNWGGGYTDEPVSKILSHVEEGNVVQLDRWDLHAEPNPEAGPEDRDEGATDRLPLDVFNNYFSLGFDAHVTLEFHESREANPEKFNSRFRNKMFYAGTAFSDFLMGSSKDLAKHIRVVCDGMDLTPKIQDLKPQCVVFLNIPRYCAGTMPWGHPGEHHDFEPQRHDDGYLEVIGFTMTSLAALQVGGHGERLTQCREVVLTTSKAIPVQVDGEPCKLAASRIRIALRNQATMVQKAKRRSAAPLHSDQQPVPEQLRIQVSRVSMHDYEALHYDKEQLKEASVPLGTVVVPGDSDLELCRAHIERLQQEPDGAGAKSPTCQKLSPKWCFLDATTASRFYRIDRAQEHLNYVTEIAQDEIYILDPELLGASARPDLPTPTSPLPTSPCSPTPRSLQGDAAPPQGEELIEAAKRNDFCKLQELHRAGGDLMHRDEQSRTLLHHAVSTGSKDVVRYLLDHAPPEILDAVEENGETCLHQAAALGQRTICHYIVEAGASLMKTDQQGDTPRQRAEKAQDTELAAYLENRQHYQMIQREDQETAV

Sequence of DGKα (P23743 whole entry): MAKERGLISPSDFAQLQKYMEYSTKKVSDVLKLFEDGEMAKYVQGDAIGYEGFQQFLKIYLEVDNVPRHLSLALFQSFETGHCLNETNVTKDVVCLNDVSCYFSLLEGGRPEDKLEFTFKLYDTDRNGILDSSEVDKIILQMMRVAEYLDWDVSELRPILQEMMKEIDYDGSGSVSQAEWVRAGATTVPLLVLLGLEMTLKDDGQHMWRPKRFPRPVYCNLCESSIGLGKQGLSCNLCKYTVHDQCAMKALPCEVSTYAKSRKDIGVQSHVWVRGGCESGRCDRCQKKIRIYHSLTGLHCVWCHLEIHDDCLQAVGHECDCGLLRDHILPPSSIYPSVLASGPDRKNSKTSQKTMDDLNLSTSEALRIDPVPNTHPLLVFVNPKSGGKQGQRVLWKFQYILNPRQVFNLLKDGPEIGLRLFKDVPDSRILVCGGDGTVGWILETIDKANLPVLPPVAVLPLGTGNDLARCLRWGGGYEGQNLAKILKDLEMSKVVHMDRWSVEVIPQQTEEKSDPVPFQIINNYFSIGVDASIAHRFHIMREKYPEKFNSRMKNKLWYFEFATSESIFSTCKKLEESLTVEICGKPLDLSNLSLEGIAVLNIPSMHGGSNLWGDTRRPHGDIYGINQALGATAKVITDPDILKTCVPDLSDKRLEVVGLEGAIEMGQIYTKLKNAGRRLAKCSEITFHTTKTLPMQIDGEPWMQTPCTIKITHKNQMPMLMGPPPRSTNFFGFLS

Broadly, the IC50 is the point on the concentration scale where inhibition reaches its midpoint. In the case of `CCOc1cc(F)ccc1C(C)N1C[C@H](CC)N(c2cc(=O)n(C)c3cn(CC#N)nc23)C[C@H]1CC` (some centres unmarked) [Compound A141], the IC50 amounted to 6630 nM in test [1] and 696 nM in test [2].
For `CC[C@H]1CN(C(C)c2ccc(F)cc2OC(C)C)[C@H](CC)CN1c1cc(=O)n(C)c2cn(CC#N)nc12` (some centres unmarked) [Compound A142], in that order: 6580 nM and 1220 nM.
Consider `COC[C@H]1CN(C(C)c2ccc3nccnc3c2)[C@H](C)CN1c1cc(=O)n(C)c2cn(CC#N)nc12` (stereo partly drawn) [Compound A143, 2-(7-((2R,5R)-2-(methoxymethyl)-5-methyl-4-(1-(quinoxalin-6-yl)ethyl)piperazin-1-yl)-4-methyl-5-oxo-4,5-dihydro-2H-pyrazolo[4,3-b]pyridin-2-yl)acetonitrile], for which the IC50 was greater than 10000 nM in test [1] and 253 nM in test [2].
For `CC[C@H]1CN(C(C)c2nc3ccccc3n2CC)[C@H](CC)CN1c1cc(=O)n(C)c2cn(CC#N)nc12` (stereo partly drawn) [Compound A144, 2-(7-((2S,5R)-2,5-diethyl-4-(1-(1-ethyl-1H-benzo[d]imidazol-2-yl)ethyl)piperazin-1-yl)-4-methyl-5-oxo-4,5-dihydro-2H-pyrazolo[4,3-b]pyridin-2-yl)acetonitrile], in that order: 105000 nM and 42 nM.
For `CC(c1ccc2nccnc2c1)N1C[C@H](CCO)N(c2cc(=O)n(C)c3cn(CC#N)nc23)C[C@H]1C` (stereo partly drawn) [Compound A145, 2-(7-((2S,5R)-2-(2-hydroxyethyl)-5-methyl-4-(1-(quinoxalin-6-yl)ethyl)piperazin-1-yl)-4-methyl-5-oxo-4,5-dihydro-2H-pyrazolo[4,3-b]pyridin-2-yl)acetonitrilecetonitrile] the same measures were 20300 nM and 55 nM.
For the compound `CC[C@H]1CN(C(C)c2ncc(F)cc2F)[C@H](CC)CN1c1cc(=O)n(C)c2cn(CC#N)nc12` (some centres unmarked) [Compound A148], the IC50 in test [1] was determined as 34 nM; in test [2], 190 nM.
For `CC[C@H]1CN(C(C)c2cccc(CN(C)C)c2)[C@H](CC)CN1c1cc(=O)n(C)c2cn(CC#N)nc12` (some centres unmarked) [Compound A151], in that order: greater than 10000 nM and 2040 nM.
For `CC[C@H]1CN(C(C)c2ccc(F)cc2CO)[C@H](CC)CN1c1cc(=O)n(C)c2cn(CC#N)nc12` (stereo partly drawn) [Compound A152, 2-(7-((2S,5R)-2,5-diethyl-4-(1-(4-fluoro-2-(hydroxymethyl)phenyl)ethyl)piperazin-1-yl)-4-methyl-5-oxo-4,5-dihydro-2H-pyrazolo[4,3-b]pyridin-2-yl)acetonitrile], in that order: 4380 nM and 1770 nM.
Turning to `CC(c1ccc2nccnc2c1)N1C[C@H](C)N(c2nc(=O)n(C)c3cn(CC#N)nc23)C[C@H]1C` (stereo partly drawn) [Compound A154, 2-(7-((2S,5R)-2,5-dimethyl-4-(1-(quinoxalin-6-yl)ethyl)piperazin-1-yl)-4-methyl-5-oxo-4,5-dihydro-2H-pyrazolo[4,3-d]pyrimidin-2-yl)acetonitrile], the 50% inhibitory concentration (IC50) in test [1] stood at 9210 nM; in test [2] it was 104 nM.
For `CC[C@@H]1CN(c2c(C#N)c(=O)n(C)c3cn(CC#N)nc23)[C@@H](C)CN1C(C)c1ccc2nccnc2c1` (stereo partly drawn) [Compound A156, 2-(cyanomethyl)-7-((2S,5R)-5-ethyl-2-methyl-4-(1-(quinoxalin-6-yl)ethyl)piperazin-1-yl)-4-methyl-5-oxo-4,5-dihydro-2H-pyrazolo[4,3-b]pyridine-6-carbonitrile], in that order: 1750 nM and 18 nM.
For `CC[C@H]1CN(C(C)c2ccc(C(F)(F)F)cc2OC)[C@H](CC)CN1c1cc(=O)n(C)c2cn(CC#N)nc12` (some centres unmarked) [Compound A157], in that order: 2990 nM and 1030 nM.
In the case of `CC(c1ccc2nccnc2c1)N1C[C@H](CC#N)N(c2cc(=O)n(C)c3cn(CC#N)nc23)C[C@H]1C` (stereo partly drawn) [Compound A158, 2-((2S,5R)-1-(2-(cyanomethyl)-4-methyl-5-oxo-4,5-dihydro-2H-pyrazolo[4,3-b]pyridin-7-yl)-5-methyl-4-(1-(quinoxalin-6-yl)ethyl)piperazin-2-yl)acetonitrile], the IC50 in test [1] was greater than 10000 nM; in test [2], 381 nM.
For `CC[C@H]1CN(C(C)c2ccc3c(n2)OCCO3)[C@H](CC)CN1c1cc(=O)n(C)c2cn(CC#N)nc12` (stereo partly drawn) [Compound A159, 2-(7-((2S,5R)-4-(1-(2,3-dihydro-[1,4]dioxino[2,3-b]pyridin-6-yl)ethyl)-2,5-diethylpiperazin-1-yl)-4-methyl-5-oxo-4,5-dihydro-2H-pyrazolo[4,3-b]pyridin-2-yl)acetonitrile], the IC50 in test [1] is 190 nM; in test [2], 30 nM.
As for `CC[C@H]1CN(C(C)c2ccc(OC(C)C)cc2)[C@H](CC)CN1c1cc(=O)n(C)c2cn(CC#N)nc12` (some centres unmarked) [Compound A160], the IC50 amounted to 52 nM in test [1] and 247 nM in test [2].
For `CC[C@H]1CN(C(C)c2ccc(F)cc2NC)[C@H](CC)CN1c1cc(=O)n(C)c2cn(CC#N)nc12` (some centres unmarked) [Compound A163], the IC50 in test [1] is greater than 10000 nM; in test [2], 4420 nM.
For `COCC[C@H]1CN(C(C)c2ccc3nccnc3c2)[C@H](C)CN1c1cc(=O)n(C)c2cn(CC#N)nc12` (stereo partly drawn) [Compound A164, 2-(7-((2S,5R)-2-(2-methoxyethyl)-5-methyl-4-(1-(quinoxalin-6-yl)ethyl)piperazin-1-yl)-4-methyl-5-oxo-4,5-dihydro-2H-pyrazolo[4,3-b]pyridin-2-yl)acetonitrile] the same measures were 8970 nM and 72 nM.
For `CC[C@H]1CN(C(C)c2ccccc2NC(C)=O)[C@H](CC)CN1c1cc(=O)n(C)c2cn(CC#N)nc12` (some centres unmarked) [Compound A165] the same measures were greater than 10000 nM and 2840 nM.
Take `CC[C@H]1CN(C(C)c2ccc3c(n2)OCCN3C)[C@H](CC)CN1c1cc(=O)n(C)c2cn(CC#N)nc12` (stereo partly drawn) [Compound A166, 2-(7-((2S,5R)-2,5-diethyl-4-(1-(1-methyl-2,3-dihydro-1H-pyrido[2,3-b][1,4]oxazin-6-yl)ethyl)piperazin-1-yl)-4-methyl-5-oxo-4,5-dihydro-2H-pyrazolo[4,3-b]pyridin-2-yl)acetonitrile]: the half-inhibitory concentration (IC50) was greater than 10000 nM in test [1] and 2380 nM in test [2].
On to `CC[C@H]1CN(C(C)c2ccc3nccnc3c2)[C@H](CC)CN1c1cc(=O)n(CC2CC2)c2cn(CC#N)nc12` (some centres unmarked) [Compound A167], for which the IC50 in test [1] is greater than 10000 nM; in test [2], 1020 nM.
For `CC(c1ccc2nccnc2c1)N1C[C@H](C)N(c2c(F)c(=O)n(C)c3cn(CC#N)nc23)C[C@H]1C` (stereo partly drawn) [Compound A168, 2-(7-((2S,5R)-2,5-dimethyl-4-(1-(quinoxalin-6-yl)ethyl)piperazin-1-yl)-6-fluoro-4-methyl-5-oxo-4,5-dihydro-2H-pyrazolo[4,3-b]pyridin-2-yl)acetonitrile], in that order: 6080 nM and 28 nM.
Consider `CC[C@H]1CN(C(C)c2ccc(F)cc2OC(F)(F)F)[C@H](CC)CN1c1cc(=O)n(C)c2cn(CC#N)nc12` (stereo partly drawn) [Compound A170, 2-(7-((2S,5R)-2,5-diethyl-4-(1-(4-fluoro-2-(trifluoromethoxy)phenyl)ethyl)piperazin-1-yl)-4-methyl-5-oxo-4,5-dihydro-2H-pyrazolo[4,3-b]pyridin-2-yl)acetonitrile], for which the concentration for half-maximal inhibition (IC50) is greater than 10000 nM in test [1] and 887 nM in test [2].
For `CC[C@H]1CN(C(C)c2nccn2CC)[C@H](CC)CN1c1cc(=O)n(C)c2cn(CC#N)nc12` (some centres unmarked) [Compound A174] the same measures were 105000 nM and 57900 nM.
